In general, Kd refers to a measure of binding affinity in units of concentration.

Bridge positions count the residues as written; N and C are the ends. Peptide text beside a SMILES is read from it. * marks the point of attachment. X1 = O=C(CCOCC(COCCC(=O)NCCOCCOCCOCCOC[C@@]12CO[C@@H](O1)[C@H](NC(=O)C(F)(F)F)[C@@H](O)[C@H]2O)(COCCC(=O)NCCOCCOCCOCCOC[C@@]12CO[C@@H](O1)[C@H](NC(=O)C(F)(F)F)[C@@H](O)[C@H]2O)NC(=O)CCO[C@H]1C[C@H](OCCC(=O)*)C1)NCCOCCOCCOCCOC[C@@]12CO[C@@H](O1)[C@H](NC(=O)C(F)(F)F)[C@@H](O)[C@H]2O A value given as a limit tells only on which side of the number the result lay.

The first assay deals with ASGPR (Homo sapiens (Human), UniProt P07306). The assay is described as follows: Affinity to ASGPR measured by surface plasmon resonance (SPR). The following applies: ASGPR ligands with linker, Table 5; read-out: ASGPR_SPR Binding KD. The format is binding. (In general: SPR reads the build-up and loss of mass on a sensor chip optically.)
Chain of ASGPR (P07306 whole entry): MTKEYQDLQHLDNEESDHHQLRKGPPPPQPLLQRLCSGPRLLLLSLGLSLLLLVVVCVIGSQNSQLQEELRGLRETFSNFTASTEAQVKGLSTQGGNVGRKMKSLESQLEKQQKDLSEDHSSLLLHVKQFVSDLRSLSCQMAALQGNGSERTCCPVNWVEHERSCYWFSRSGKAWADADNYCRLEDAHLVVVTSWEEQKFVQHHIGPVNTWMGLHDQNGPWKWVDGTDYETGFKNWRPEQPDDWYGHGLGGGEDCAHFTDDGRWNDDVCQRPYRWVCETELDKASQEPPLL
For `CC(C)C[C@@H]1NC(=O)[C@@H](NC(=O)[C@@H](NC(=O)[C@H](CCC(N)=O)NC(=O)[C@H](Cc2cnc[nH]2)NC(=O)CCO[C@H]2C[C@H](OCCC(=O)NC(COCCC(=O)NCCOCCOCCOCCOC[C@@]34CO[C@@H](O3)[C@H](NC(=O)C(F)(F)F)[C@@H](O)[C@H]4O)(COCCC(=O)NCCOCCOCCOCCOC[C@@]34CO[C@@H](O3)[C@H](NC(=O)C(F)(F)F)[C@@H](O)[C@H]4O)COCCC(=O)NCCOCCOCCOCCOC[C@@]34CO[C@@H](O3)[C@H](NC(=O)C(F)(F)F)[C@@H](O)[C@H]4O)C2)C(C)C)CSSC[C@@H](C(=O)N[C@@H](Cc2ccccc2)C(=O)N[C@@H](CO)C(=O)N[C@H](C(N)=O)[C@@H](C)O)NC(=O)[C@H](C(C)C)NC(=O)[C@@H]2CCCN2C(=O)[C@H](CCCNC(=N)N)NC(=O)CNC(=O)[C@H](CCCNC(=N)N)NC(=O)[C@H](Cc2ccc(O)cc2)NC(=O)[C@H](CO)NC1=O` [Compound 31] (X1-HQVCLSYRGRPVCFST-NH2; disulfide 4-13), the Kd is less than 100 µM.

The same assay, now with this note: ASGPR ligands, Table 2; Biacore 8K, 25° C., steady state fit; read-out: SPR Binding External Calculation: KD.
For `OC[C@H]1OC[C@H](Nc2ncc(Cl)cc2F)[C@@H](O)[C@H]1O` [Compound A100], the Kd is less than 100 µM.
Still for that read-out and setting: with `CO[C@@H]1O[C@H](CO)[C@H](O)[C@H](O)[C@H]1Nc1ncc(Cl)cc1F` [Compound A109] the figure was less than 100 µM.
On the same count and under the same terms, the result for `CC(=O)N[C@@H]1CO[C@H](CO)[C@H](O)[C@@H]1O` [Compound A127, N-((3R,4R,5R,6R)-4,5-dihydroxy-6-(hydroxymethyl)tetrahydro-2H-pyran-3-yl)acetamide] reads less than 100 µM; that for `OC[C@H]1OC[C@H](Nc2ncc(F)cc2F)[C@@H](O)[C@H]1O` [Compound A103], 100 to 500 µM.
Same read-out and setting: the result for `CO[C@@H]1O[C@H](CO)[C@H](O)[C@H](O)[C@H]1Nc1nc(N2CCN(C)CC2)ns1` [Compound A116, (2R,3R,4R,5R,6R)-2-(hydroxymethyl)-6-methoxy-5-((3-(4-methylpiperazin-1-yl)-1,2,4-thiadiazol-5-yl)amino)tetrahydro-2H-pyran-3,4-diol] reads less than 100 µM.
Turning to `CO[C@@H]1O[C@H](COS(=O)(=O)c2ccc(C)cc2)[C@H](O)[C@H](O)[C@H]1NC(C)=O` [Compound A286], the Kd was less than 100 µM.
On to `C[C@@H]1CO[C@H](CO)[C@H](O)[C@@H]1O` [Compound A182, (2R,3R,4R,5R)-2-(hydroxymethyl)-5-methyltetrahydro-2H-pyran-3,4-diol], for which the Kd is greater than 1000 µM.
The same measure, in the same setting: the result for `CO[C@@H]1O[C@H](CO)[C@H](O)[C@H](O)[C@H]1N` [Compound A90, (2R,3R,4R,5R,6R)-5-amino-2-(hydroxymethyl)-6-methoxytetrahydro-2H-pyran-3,4-diol] reads 100 to 500 µM; that for `CO[C@@H]1O[C@H](CO)[C@H](O)[C@H](O)[C@H]1Nc1nc(=O)[nH]c(=O)[nH]1` [Compound A112, 6-(((2R,3R,4R,5R,6R)-4,5-dihydroxy-6-(hydroxymethyl)-2-methoxytetrahydro-2H-pyran-3-yl)amino)-1,3,5-triazine-2,4(1H,3H)-dione], less than 100 µM; that for `CO[C@@H]1O[C@H](CO)[C@H](O)[C@H](O)[C@H]1Nc1cccc(F)n1` [Compound A107, (2R,3R,4R,5R,6R)-5-((6-fluoropyridin-2-yl)amino)-2-(hydroxymethyl)-6-methoxytetrahydro-2H-pyran-3,4-diol], greater than 1000 µM.
Take `CO[C@H]1O[C@H](CO)[C@H](O)[C@H](O)[C@H]1Nc1ncc(Cl)cc1F` [Compound A113]: the Kd was less than 100 µM.
As to `CO[C@@H]1O[C@H](CO)[C@H](O)[C@H](O)[C@H]1Nc1nc(Cl)cs1` [Compound A108], the Kd was less than 100 µM.
On to `CC(=O)NC[C@@H]1CO[C@H](CO)[C@H](O)[C@@H]1O` [Compound A183, N-(((3R,4R,5R,6R)-4,5-dihydroxy-6-(hydroxymethyl)tetrahydro-2H-pyran-3-yl)methyl)acetamide], for which the Kd was 100 to 500 µM.

Staying with this assay, now noted: ASGPR ligands, Table 4; class symbols; read-out: ASGPR_PR Binding KD.
Regarding `OC[C@H]1OC[C@H](Nc2ccnc(C(F)(F)F)n2)[C@@H](O)[C@H]1O` [Compound A301], the Kd was less than 100 µM.
Consider `CO[C@H]1O[C@H](CO)[C@H](O)C[C@H]1Nc1nc(N2CCOCC2)ns1` [Compound A382], for which the Kd is less than 100 µM.
The same measure, in the same setting: with `COc1cc(C#N)cc(N[C@H]2CO[C@H](CO)[C@H](O)[C@@H]2O)n1` [Compound A364, 2-(((3S,4R,5R,6R)-4,5-dihydroxy-6-(hydroxymethyl)tetrahydro-2H-pyran-3-yl)amino)-6-methoxyisonicotinonitrile] the figure was less than 100 µM; with `COc1cc(C#N)nc(N[C@H]2CO[C@H](CO)[C@H](O)[C@@H]2O)n1` [Compound A346, 2-(((3S,4R,5R,6R)-4,5-dihydroxy-6-(hydroxymethyl)tetrahydro-2H-pyran-3-yl)amino)-6-methoxypyrimidine-4-carbonitrile], less than 100 µM.
`CO[C@@H]1O[C@H](CO)[C@H](O)[C@H](O)[C@H]1Nc1ncc(F)cc1F` [Compound A383, (2R,3R,4R,5R,6R)-5-((3,5-difluoropyridin-2-yl)amino)-2-(hydroxymethyl)-6-methoxytetrahydro-2H-pyran-3,4-diol]: the dissociation constant (Kd) was less than 100 µM.
For the compound `COc1cc(N[C@H]2CO[C@H](CO)[C@H](O)[C@@H]2O)nc(C(F)(F)F)n1` [Compound A359, (2R,3R,4R,5S)-2-(hydroxymethyl)-5-((6-methoxy-2-(trifluoromethyl)pyrimidin-4-yl)amino)tetrahydro-2H-pyran-3,4-diol], the equilibrium dissociation constant (Kd) is less than 100 µM.
On the same count and under the same terms, the result for `OC[C@@]12CO[C@@H](O1)[C@H](Nc1nc(Br)ns1)[C@@H](O)[C@H]2O` [Compound A288] reads less than 100 µM; that for `OC[C@H]1OC[C@H](Nc2cccc(C(F)(F)F)n2)[C@@H](O)[C@H]1O` [Compound A302], less than 100 µM; that for `CO[C@H]1O[C@H](CO)[C@H](O)[C@H](O)[C@H]1Nc1cccc(C(F)(F)F)n1` [Compound A381], less than 100 µM.
Consider `C=CCO[C@H]1O[C@H](CO)[C@H](O)[C@H](O)[C@H]1Nc1nccc(C(F)(F)F)n1` [Compound A406, (2R,3R,4R,5R,6S)-6-(allyloxy)-2-(hydroxymethyl)-5-((4-(trifluoromethyl)pyrimidin-2-yl)amino)tetrahydro-2H-pyran-3,4-diol], for which the dissociation constant (Kd) was less than 100 µM.
The same measure, in the same setting: with `CO[C@H]1O[C@H](CO)[C@H](O)[C@H](O)[C@H]1Nc1nc(Cl)c(C#N)s1` [Compound A379] the figure was less than 100 µM; with `COc1cc(N[C@H]2CO[C@H](CO)[C@H](O)[C@@H]2O)nc(OC)n1` [Compound A363, (2R,3R,4R,5S)-5-((2,6-dimethoxypyrimidin-4-yl)amino)-2-(hydroxymethyl) tetrahydro-2H-pyran-3,4-diol], less than 100 µM; with `CSc1nc(Cl)cc(N[C@H]2CO[C@H](CO)[C@H](O)[C@@H]2O)n1` [Compound A331, (2R,3R,4R,5S)-5-((6-chloro-2-(methylthio)pyrimidin-4-yl)amino)-2-(hydroxymethyl)tetrahydro-2H-pyran-3,4-diol], less than 100 µM.
Still for that read-out and setting: the result for `N#Cc1nc(Cl)cc(N[C@H]2CO[C@H](CO)[C@H](O)[C@@H]2O)n1` [Compound A320] reads less than 100 µM; that for `OC[C@H]1OC[C@H](Nc2ncc(Cl)c(C(F)(F)F)n2)[C@@H](O)[C@H]1O` [Compound A324], less than 100 µM.
Still for that read-out and setting: with `OC[C@H]1OC[C@H](Nc2cc(Cl)c(Cl)cn2)[C@@H](O)[C@H]1O` [Compound A298] the figure was less than 100 µM.
Take `CO[C@H]1O[C@H](CO)[C@H](O)[C@H](O)[C@H]1Nc1cccc(F)n1` [Compound A380]: the Kd was less than 100 µM.
Consider `OC[C@H]1OC[C@@H](Nc2nc(Cl)ns2)[C@@H](O)[C@H]1O` [Compound A146, (2R,3R,4R,5R)-5-((3-chloro-1,2,4-thiadiazol-5-yl)amino)-2-(hydroxymethyl)tetrahydro-2H-pyran-3,4-diol], for which the Kd is less than 100 µM.
As for `CO[C@@H]1O[C@H](CO)[C@H](O)[C@H](O)[C@H]1Nc1nccc(C(F)(F)F)n1` [Compound A384], the Kd is less than 100 µM.
Same read-out and setting: the result for `COc1nc(Cl)nc(N[C@H]2CO[C@H](CO)[C@H](O)[C@@H]2O)n1` [Compound A330] reads less than 100 µM; that for `OC[C@@]12CO[C@@H](O1)[C@H](Nc1nc(Cl)nn3cccc13)[C@@H](O)[C@H]2O` [Compound A291], less than 100 µM; that for `OC[C@H]1OC[C@H](Nc2cc(Cl)ncn2)[C@@H](O)[C@H]1O` [Compound A321], less than 100 µM.
As to `NC(=O)[C@@H]1CO[C@H](CO)[C@H](O)[C@@H]1O` [Compound A174, (3R,4R,5R,6R)-4,5-dihydroxy-6-(hydroxymethyl)tetrahydro-2H-pyran-3-carboxamide], the Kd was less than 100 µM.

Staying with this assay, now noted: ASGPR ligands, Table 4; numeric lower bounds; read-out: ASGPR_PR Binding KD.
With `CCOc1cc(C#N)nc(N[C@H]2CO[C@H](CO)[C@H](O)[C@@H]2O)n1` [Compound A368, 2-(((3S,4R,5R,6R)-4,5-dihydroxy-6-(hydroxymethyl)tetrahydro-2H-pyran-3-yl)amino)-6-ethoxypyrimidine-4-carbonitrile], the Kd was greater than 20 µM.
On to `OC[C@H]1OC[C@@H](Nc2ccncn2)[C@@H](O)[C@H]1O` [Compound A149], for which the equilibrium dissociation constant (Kd) is greater than 20 µM.
For `OC[C@H]1OC[C@H](Nc2cnc(C(F)(F)F)cn2)[C@@H](O)[C@H]1O` [Compound A314], the Kd was greater than 20 µM.
Still for that read-out and setting: the result for `NC(=O)C[C@@H]1CO[C@H](CO)[C@H](O)[C@@H]1O` [Compound A399, 2-((3R,4R,5R,6R)-4,5-dihydroxy-6-(hydroxymethyl)tetrahydro-2H-pyran-3-yl)acetamide] reads greater than 200 µM; that for `CN1CCN(C[C@@H]2CO[C@H](CO)[C@H](O)[C@@H]2O)CC1` [Compound A390, (2R,3R,4R,5R)-2-(hydroxymethyl)-5-((4-methylpiperazin-1-yl)methyl) tetrahydro-2H-pyran-3,4-diol], greater than 200 µM.
On to `COC(=O)[C@@H]1CO[C@H](CO)[C@H](O)[C@@H]1O` [Compound A401, methyl (3R,4R,5R,6R)-4,5-dihydroxy-6-(hydroxymethyl)tetrahydro-2H-pyran-3-carboxylate], for which the Kd is greater than 200 µM.

These data come from US20240072809A1, “ASGPR-BINDING COMPOUNDS FOR THE DEGRADATION OF EXTRACELLULAR PROTEINS” (Avilar Therapeutics, Inc., priority 2020, published 2024).
